Data on eleven molecules can be found in patent US20150105252A1, “SUBSTITUTED PYRAZOLES AS HERBICIDES” (E I DU PONT DE NEMOURS AND COMPANY, priority 2013, published 2015).

The test system of experiment [1] is Surinam grass. The experiment in a line: Test C preemergence. Type of experiment: in vivo, Brachiaria decumbens. The source says: (§1) Seeds of plant species selected from blackgrass (Alopecurus myosuroides), ryegrass, Italian (Italian ryegrass, Lolium multiflorum), wheat (winter wheat, Triticum aestivum), galium (catchweed bedstraw, Galium aparine), corn (Zea mays), crabgrass, large (large crabgrass, Digitaria sanguinalis), foxtail, giant (giant foxtail, Setaria faberii), johnsongrass (Sorghum halepense), lambsquarters (Chenopodium album), morningglory (Ipomoea coccinea), nutsedge, yellow (yellow nutsedge, Cyperus esculentus), pigweed (redroot pigweed, Amaranthus retroflexus), ragweed (common ragweed, Ambrosia elation), soybean (Glycine max), barnyardgrass (Echinochloa crus-galli), oilseed rape (Brassica napus), waterhemp (common waterhemp, Amaranthus rudis), oat, wild (wild oat, Avena fatua), kochia (Kochia scoparia), Surinam grass (Brachiaria decumbens), foxtail, green (green foxtail, Setaria viridis), goosegrass (Eleusine indica), bromegrass, downy (downy bromegrass, Bromus tectorum), nightshade (eastern black nightshade, Solanum ptycanthum), cocklebur (common cocklebur, Xanthium strumarium), cupgrass, woolly (woolly cupgrass, Eriochloa villosa), bermudagrass (Cynodon dactylon), sunflower, (common oilseed sunflower, Helianthus annuus), Russian thistle (Salsola kali), and velvetleaf (Abutilon theophrasti) were planted into a blend of loam soil and sand and treated preemergence with test chemicals formulated in a non-phytotoxic solvent mixture which included a surfactant.
(§2) At the same time, plants selected from these crop and weed species and also chickweed (common chickweed, Stellaria media), canarygrass (littleseed canarygrass, Phalaris minor), and deadnettle (henbit deadnettle, Lamium amplexicaule), were planted in pots containing Redi-Earth® planting medium (Scotts Company, 14111 Scottslawn Road, Marysville, Ohio 43041) comprising spaghnum peat moss, vermiculite, wetting agent and starter nutrients and treated with postemergence applications of test chemicals formulated in the same manner. Plants ranged in height from 2 to 18 cm (1- to 4-leaf stage) for postemergence treatments. Treated plants and controls were maintained in a greenhouse for 13 to 15 days, after which time all species were compared to controls and visually evaluated. Plant response ratings, summarized in Table C, are based on a scale of 0 to 100 where 0 is no effect and 100 is complete control. A dash (-) response means no test result.

The next experiment has as its system bromegrass, downy. The experiment can be described thus: Test C postemergence. The class given is in vivo, Bromus tectorum. The settings on record: for Bromegrass, Downy plant response rating: scale 0 to 100.
Description: as §1, §2

For the next experiment, the system named is barley. The experiment in a line: Test C postemergence. Particulars: scale 0 to 100, 0 no effect, 100 complete control. The class given is in vivo, Hordeum vulgare.
For the next experiment, the system named is lambsquarters. The experiment in a line: Test F preemergence. The class given is in vivo, Chenopodium album. The source says: (§3) Seeds of plant species selected from corn (Zea mays), soybean (Glycine max), velvetleaf (Abutilon theophrasti), lambsquarters (Chenopodium album), wild poinsettia (Euphorbia heterophylla), pigweed, palmer (palmer pigweed, Amaranthus palmeri), common waterhemp (Amaranthus rudis), surinam grass (Brachiaria decumbens), large crabgrass (Digitaria sanguinalis), crabgrass, Brazil (Brazilian crabgrass, Digitaria horizontalis), fall panicum (Panicum dichotomiflorum), giant foxtail (Setaria faberii), green foxtail (Setaria viridis), goosegrass (Eleusine indica), johnsongrass (Sorghum halepense), common ragweed (Ambrosia elation), barnyardgrass (Echinochloa crus-galli), southern sandbur (Cenchrus echinatus), arrowleaf sida (Sida rhombifolia), Italian ryegrass (Lolium multiflorum), dayflower, VA (Virginia (VA) dayflower, Commelina virginica), field bindweed (Convolvulus arvensis), cocklebur (common cocklebur, Xanthium strumarium), morningglory (Ipomoea coccinea), nightshade (eastern black nightshade, Solanum ptycanthum), kochia (Kochia scoparia), yellow nutsedge (Cyperus esculentus), and hairy beggarticks (Bidens pilosa), were planted into a silt loam soil and treated preemergence with test chemicals formulated in a non-phytotoxic solvent mixture which included a surfactant.
(§4) At the same time, plants from these crop and weed species and also horseweed (Canada horseweed, Conyza canadensis), smartweed (ladysthumb smartweed, Polygonum persicaria), waterhemp_RES1, (ALS & Triazine resistant common waterhemp, Amaranthus rudis), and waterhemp_RES2, (ALS & HPPD resistant common waterhemp, Amaranthus rudis) were treated with postemergence applications of test chemicals formulated in the same manner. Plants ranged in height from 2 to 18 cm for postemergence treatments (1- to 4-leaf stage). Treated plants and controls were maintained in a greenhouse for 14 to 21 days, after which time all species were compared to controls and visually evaluated. Plant response ratings, summarized in Table F, are based on a scale of 0 to 100 where 0 is no effect and 100 is complete control. A dash (-) response means no test result.

In experiment [2] the test system is Surinam grass. The experiment in a line: Test F preemergence. Type of experiment: in vivo, Brachiaria decumbens.
Description: as §3, §4

The subject of a further experiment is goosegrass. The experiment in a line: Test F preemergence. Type of experiment: in vivo, Eleusine indica.
Description: as §3, §4

A further experiment has as its system johnsongrass. The experiment in a line: Test F preemergence. Type of experiment: in vivo, Sorghum halepense.
Description: as §3, §4

The test system of a further experiment is field bindweed. The experiment can be described thus: Test F preemergence. Type of experiment: in vivo, Convolvulus arvensis.
Description: as §3, §4

For the next experiment, the system named is Italian ryegrass. The experiment can be described thus: Test A preemergence. The class given is in vivo, Lolium multiflorum. The gist of the method:
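After sowing in a sand–loam mix, pots received compound preemergence by directed soil spray, or postemergence once plants reached the one- to two-leaf stage (2–10 cm). Formulation contained surfactant in a non-phytotoxic solvent. Injury was scored visually after ~10 greenhouse days, 0–100 scale.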

The mark [3] stands for this setting: postemergence, 250 g ai/ha, scale 0 to 100 (0 no effect, 100 complete control).
Setting [4] is: postemergence, 125 g ai/ha, scale 0 to 100, 0 no effect, 100 complete control.
Where [5] appears, read: Preemergence, 31 g ai/ha, scale 0 to 100.
The mark [6] stands for this setting: Preemergence, 62 g ai/ha, scale 0 to 100.
Where [7] appears, read: Preemergence, 125 g ai/ha, scale 0 to 100.
The mark [8] stands for this setting: preemergence, 8 g ai/ha, scale 0 to 100, 100 is complete control.
Where [9] appears, read: preemergence, 16 g ai/ha, scale 0 to 100, 100 is complete control.
Setting [10] is: Preemergence, 250 g ai/ha, scale 0 to 100.
Where [11] appears, read: 125 g ai/ha, visual injury, 0 to 100 scale, approx. 10 days.
Setting [12] is: 500 g ai/ha, visual injury after approx. 10 days, 0 to 100 scale (0 no effect, 100 complete control).
The mark [13] stands for this setting: postemergence, 62 g ai/ha, scale 0 to 100, 0 no effect, 100 complete control.

Each structure is given as a SMILES string.

With `Cc1cc(C(=O)NCC(F)(F)F)nn1Cc1ccnc(C(F)(F)F)c1` [Compound 74], the “Plant response rating (scale of 0 to 100), Surinam Grass” value in the experiment on Surinam grass [1] (Preemergence, 250 g ai/ha) is on record as 100. Moreover, the “Surinam Grass plant response rating” value with Surinam grass [1] (preemergence, 31 g ai/ha, scale 0 to 100 (0 no effect, 100 complete control), 13 to 15 days) is recorded as 15; in the experiment with Surinam grass [1] (preemergence, 125 g ai/ha, scale 0 to 100, 0 is no effect, 100 is complete control), 85. Besides, the “Plant response rating, Surinam Grass” value in the experiment with Surinam grass [1] (preemergence, 62 g ai/ha, 13 to 15 days, scale 0 to 100, 0 = no effect, 100 = complete control) turned out to be 50. Also, the “Bromegrass, Downy plant response rating” value in the experiment on bromegrass, downy (Postemergence, 31 g ai/ha) stood at 0; in the experiment with bromegrass, downy (postemergence, 62 g ai/ha) it was 0. Further, the “Plant response rating, Bromegrass, Downy” value with bromegrass, downy (setting [3]) is 0; in the experiment on bromegrass, downy (setting [4]), 0. Further, in the experiment on barley (125 g ai/ha), the “Plant response rating, Barley” value worked out at 0.
Turning to `CCc1cc(-c2ccc(C(F)(F)F)cc2)nn1Cc1ccnc(C(F)(F)F)c1` [Compound 110], the “Plant response rating, Lambsquarters” value turned out to be 65 with lambsquarters (setting [5]); 50 in the experiment with lambsquarters (setting [6]); 100 in the experiment on lambsquarters (setting [7]); 0 with lambsquarters (setting [8]); 0 in the experiment with lambsquarters (setting [9]). Besides, the “Plant response rating, Surinam Grass” value in the experiment on Surinam grass [2] (setting [5]) is 5; with Surinam grass [2] (setting [6]), 5; in the experiment with Surinam grass [2] (setting [7]), 10; in the experiment on Surinam grass [2] (setting [8]), 0; in the experiment with Surinam grass [2] (setting [9]) it was 0. Further, the “Plant response rating, Goosegrass” value in the experiment with goosegrass (setting [5]) was 35; in the experiment with goosegrass (setting [6]) it was 60; with goosegrass (setting [7]), 95; in the experiment with goosegrass (setting [8]), 0; in the experiment with goosegrass (setting [9]), 15. Further, the “Plant response rating, Johnsongrass” value amounted to 15 with johnsongrass (setting [5]); 25 in the experiment on johnsongrass (setting [6]); 80 with johnsongrass (setting [7]); 0 in the experiment on johnsongrass (setting [8]); 0 in the experiment with johnsongrass (setting [9]). The “Plant response rating, Field Bindweed” value in the experiment on field bindweed (setting [5]) is given as 30; with field bindweed (setting [6]), 50; with field bindweed (setting [7]), 90; with field bindweed (setting [8]), 0; in the experiment on field bindweed (setting [9]) it was 10.
`CCc1cc(C(=O)NCC(F)(F)F)nn1Cc1ccnc(Br)c1` [Compound 224]: the “Plant response rating, Lambsquarters” value turned out to be 98 in the experiment with lambsquarters (setting [6]), 98 in the experiment with lambsquarters (setting [7]) and 100 in the experiment on lambsquarters (setting [10]). In addition, the results for the “Plant response rating, Surinam Grass” value in the experiment with Surinam grass [2] (setting [6]), in the experiment with Surinam grass [2] (setting [7]) and with Surinam grass [2] (setting [10]) were 70, 50 and 65, respectively. Further, the results for the “Plant response rating, Goosegrass” value in the experiment with goosegrass (setting [6]), in the experiment with goosegrass (setting [7]) and in the experiment on goosegrass (setting [10]) were 35, 60 and 95, respectively. For the same molecule, the figures for the “Plant response rating, Johnsongrass” value in the experiment on johnsongrass (setting [6]), in the experiment with johnsongrass (setting [7]) and in the experiment on johnsongrass (setting [10]) were 0, 35 and 75, respectively. Besides, the “Plant response rating, Field Bindweed” value in the experiment on field bindweed (setting [6]) is given as 65; with field bindweed (setting [7]) it was 90; in the experiment with field bindweed (setting [10]), 90.
`CCc1cc(C(=O)NOC(C)C)nn1Cc1ccnc(OC(F)F)c1` [Compound 126]: the “Italian Ryegrass plant response rating” value with Italian ryegrass (setting [11]) came out at 90; in the experiment on Italian ryegrass (setting [12]), 100.
In the case of `CCOc1cc(C(=O)NCC(F)(F)F)nn1Cc1ccnc(OC(F)F)c1` [Compound 128], the “Italian Ryegrass plant response rating” value worked out at 30 with Italian ryegrass (setting [11]) and 100 in the experiment on Italian ryegrass (setting [12]).
Regarding `CCCNC(=O)c1cc(OCC)n(Cc2ccnc(OC(F)F)c2)n1` [Compound 136], the “Italian Ryegrass plant response rating” value with Italian ryegrass (setting [11]) is given as 30; in the experiment with Italian ryegrass (setting [12]) it was 100.
With `CCCNC(=O)c1cc(CC)n(Cc2cccc(OC(F)(F)F)c2)n1` [Compound 27], the “Bromegrass, Downy plant response rating” value in the experiment with bromegrass, downy (Postemergence, 31 g ai/ha) worked out at 0. The “Plant response rating, Bromegrass, Downy” value in the experiment on bromegrass, downy (setting [3]) is listed as 10; in the experiment with bromegrass, downy (setting [13]), 5; in the experiment on bromegrass, downy (setting [4]), 5. Further, the “Plant response rating, Barley” value in the experiment on barley (62 g ai/ha) is reported as 20.
On to `CCc1cc(C(=O)NCC(F)(F)F)nn1Cc1cccc(OC(F)(F)F)c1` [Compound 20], for which, in the experiment with bromegrass, downy (Postemergence, 31 g ai/ha), the “Bromegrass, Downy plant response rating” value came to 0. Moreover, the “Plant response rating, Bromegrass, Downy” value in the experiment on bromegrass, downy (setting [3]) was determined as 10; in the experiment with bromegrass, downy (setting [13]), 0; with bromegrass, downy (setting [4]) it was 5. Moreover, the “Plant response rating, Barley” value in the experiment on barley (62 g ai/ha) is 20.
Take `CCCc1cc(C(=O)NCC(F)(F)F)nn1Cc1ccnc(OC(F)F)c1` [Compound 127]: the “Italian Ryegrass plant response rating” value in the experiment on Italian ryegrass (setting [11]) worked out at 40; in the experiment with Italian ryegrass (setting [12]) it was 90.
For the molecule `CCCc1cc(C(=O)NC2CC2)nn1Cc1ccnc(OC(F)F)c1` [Compound 205], the “Italian Ryegrass plant response rating (0 to 100 scale)” value in the experiment with Italian ryegrass (125 g ai/ha, visual injury approx. 10 days after treatment) is reported as 50. Besides, the “Italian Ryegrass plant response rating” value in the experiment with Italian ryegrass (setting [12]) is listed as 100.
For `CCCc1cc(C(=O)NC(C)C)nn1Cc1cc(C(F)(F)F)nn1C` [Compound 201], the “Plant response rating, Lambsquarters” value was found to be 70 in the experiment on lambsquarters (setting [6]), 100 in the experiment on lambsquarters (setting [7]), 100 in the experiment on lambsquarters (setting [10]) and 0 in the experiment with lambsquarters (setting [9]). The “Plant response rating, Surinam Grass” value with Surinam grass [2] (setting [6]) was found to be 0; with Surinam grass [2] (setting [7]), 35; in the experiment on Surinam grass [2] (setting [10]), 65; in the experiment with Surinam grass [2] (setting [9]), 0. Moreover, the “Plant response rating, Goosegrass” value turned out to be 50 with goosegrass (setting [6]), 95 in the experiment on goosegrass (setting [7]), 95 in the experiment on goosegrass (setting [10]) and 0 with goosegrass (setting [9]). For the same molecule, the “Plant response rating, Johnsongrass” value with johnsongrass (setting [6]) amounted to 25; with johnsongrass (setting [7]), 80; with johnsongrass (setting [10]) it was 95; with johnsongrass (setting [9]), 0. The “Plant response rating, Field Bindweed” value in the experiment with field bindweed (Preemergence, 16 g ai/ha, scale 0 to 100) is listed as 15; in the experiment on field bindweed (setting [6]), 20; with field bindweed (setting [7]) it was 75; in the experiment on field bindweed (setting [10]), 100; in the experiment on field bindweed (setting [9]), 0.
